Laboratory results published in the supplement of paper PMC10307832.

Experiments:
Experiment in all cases: relative viability (nuclei count vs DMSO), 5 days (fraction); higher = more cells survive
MK-8033 + Luminespib = compound: Cn1cc(-c2cnc3ccc4ccc(CS(=O)(=O)NCc5ccccn5)cc4c(=O)c3c2)cn1 [MK-8033] + CCNC(=O)c1noc(-c2cc(C(C)C)c(O)cc2O)c1-c1ccc(CN2CCOCC2)cc1 [Luminespib] (partner 0.01 µM)
Summary of the method: (§1)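 Lung cancer cell lines were pin-tool dosed in 1536-well plates on the day after seeding, with either a lone drug or a fixed anchor-drug dose plus five library-drug doses (not always all listed) in √10 steps. Nuclei were counted on 4× images after 5 days. Relative viability is the ratio of treated-well to vehicle-well nuclei counts, with each value a median of duplicate plates.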

RU-SKI 43 + Crizotinib = compound: CC[C@@H](C)CNCC(=O)N1CCC2=C([C@@H]1COC3=CC=CC(=C3)C)C=CS2 [RU-SKI 43] + C[C@@H](Oc1cc(-c2cnn(C3CCNCC3)c2)cnc1N)c1c(Cl)ccc(F)c1Cl [Crizotinib] (partner 1 µM)
Summary of the method: as §1

Irinotecan + Decitabine = compound: CCc1c2c(nc3ccc(OC(=O)N4CCC(N5CCCCC5)CC4)cc13)-c1cc3c(c(=O)n1C2)COC(=O)[C@]3(O)CC [Irinotecan] + Nc1ncn([C@H]2C[C@H](O)[C@@H](CO)O2)c(=O)n1 [Decitabine] (partner 2 µM)
Summary of the method: as §1

RU-SKI 43 + Bortezomib = compound: CC[C@@H](C)CNCC(=O)N1CCC2=C([C@@H]1COC3=CC=CC(=C3)C)C=CS2 [RU-SKI 43] + CC(C)C[C@H](NC(=O)[C@H](Cc1ccccc1)NC(=O)c1cnccn1)B(O)O [Bortezomib] (partner 0.002 µM)
Summary of the method: as §1

Row | Cell Line | relative viability (MK-8033 + Luminespib; first compound 0.02 µM) | relative viability (MK-8033 + Luminespib; first compound 0.06325 µM) | relative viability (MK-8033 + Luminespib; first compound 0.2 µM) | relative viability (MK-8033 + Luminespib; first compound 0.6325 µM) | relative viability (MK-8033 + Luminespib; first compound 2 µM) | relative viability (RU-SKI 43 + Crizotinib; first compound 0.1 µM) | relative viability (RU-SKI 43 + Crizotinib; first compound 0.3162 µM) | relative viability (RU-SKI 43 + Crizotinib; first compound 1 µM) | relative viability (RU-SKI 43 + Crizotinib; first compound 3.162 µM) | relative viability (RU-SKI 43 + Crizotinib; first compound 10 µM) | relative viability (Irinotecan + Decitabine; first compound 0.6325 µM) | relative viability (Irinotecan + Decitabine; first compound 2 µM) | relative viability (Irinotecan + Decitabine; first compound 6.325 µM) | relative viability (Irinotecan + Decitabine; first compound 20 µM) | relative viability (RU-SKI 43 + Bortezomib; first compound 0.1 µM) | relative viability (RU-SKI 43 + Bortezomib; first compound 0.3162 µM) | relative viability (RU-SKI 43 + Bortezomib; first compound 1 µM) | relative viability (RU-SKI 43 + Bortezomib; first compound 3.162 µM) | relative viability (RU-SKI 43 + Bortezomib; first compound 10 µM)
1 | SK-MES-1 | 0.628 | 0.728 | 0.722 | 0.908 | 0.823 | 0.862 | 1.07 | 1.06 | 1.09 | 0.98 | 0.398 | 0.483 | 0.282 | 0.143 |  |  |  |  | 
2 | HOP-62 | 0.938 | 0.794 | 0.814 | 0.941 | 0.86 | 0.7 | 1.01 | 1.09 | 0.829 | 0.977 | 0.22 | 0.198 | 0.187 | 0.212 | 0.728 | 0.561 | 1.01 | 0.731 | 0.765
3 | NCI-H520 | 0.22 | 0.207 | 0.226 | 0.211 | 0.219 | 0.858 | 0.874 | 1.09 | 0.706 | 0.616 | 0.392 | 0.396 | 0.267 | 0.195 | 0.572 | 0.798 | 0.721 | 0.667 | 0.597
4 | EBC-1 |  |  |  |  |  | 0.19 | 0.183 | 0.202 | 0.176 | 0.155 |  |  |  |  | 0.469 | 0.428 | 0.652 | 0.451 | 0.382
5 | BEN | 0.382 | 0.419 | 0.331 | 0.295 | 0.455 | 0.933 | 1.14 | 1.03 | 0.865 | 0.758 | 0.503 | 0.793 | 0.493 | 0.504 | 0.815 | 0.819 | 1.24 | 0.769 | 0.665
6 | NCI-H322M | 0.85 | 0.85 | 0.78 | 0.873 | 0.842 | 1.19 | 1.04 | 0.941 | 0.979 | 0.733 | 0.602 | 0.725 | 0.548 | 0.342 | 1.2 | 1.3 | 1.3 | 1.24 | 1.28
7 | LU99A | 0.24 | 0.272 | 0.258 | 0.177 | 0.241 | 0.542 | 0.565 | 0.595 | 0.6 | 0.469 | 0.196 | 0.184 | 0.157 | 0.169 | 1.08 | 1.3 | 1.15 | 1.23 | 1.03
8 | NCI-H2405 | 0.711 | 0.614 | 0.65 | 0.64 | 0.814 | 0.863 | 0.933 | 0.811 | 0.852 | 0.807 |  | 0.667 | 0.411 | 0.255 | 0.957 | 1.03 | 1.02 | 0.936 | 0.773
9 | NCI-H1395 | 0.764 | 0.559 | 0.526 | 0.735 | 0.584 |  |  |  |  |  |  | 0.722 | 0.522 | 0.301 |  |  |  |  | 
10 | HCC-44 | 1.06 | 1.02 | 1.01 | 1.3 | 1.05 | 0.778 | 0.785 | 0.846 | 0.796 | 0.806 | 0.87 | 0.913 | 0.677 | 0.512 | 0.918 | 0.864 | 1 | 0.849 | 0.852
11 | NCI-H441 | 0.403 | 0.375 | 0.352 | 0.336 | 0.305 | 0.662 | 0.655 | 0.637 | 0.686 | 0.641 | 0.208 | 0.166 | 0.227 | 0.324 | 0.649 | 0.243 | 0.657 | 0.562 | 0.393
12 | Calu-6 |  |  |  |  |  | 0.781 | 0.871 | 0.936 | 0.726 | 0.594 |  |  |  |  | 1.1 | 0.966 | 1.04 | 1.1 | 0.974
13 | CAL-12T | 0.263 | 0.305 | 0.518 | 0.319 | 0.53 | 0.494 | 0.747 | 0.652 | 0.896 | 0.653 |  |  |  |  | 0.967 | 1 | 1.3 | 0.961 | 0.964
14 | HCC-78 |  |  |  |  |  | 0.334 | 0.305 | 0.35 | 0.353 | 0.302 | 0.607 | 0.479 | 0.335 | 0.328 | 0.505 | 0.495 | 0.484 | 0.471 | 0.427
15 | NCI-H2170 | 0.435 | 0.388 | 0.694 | 0.622 | 0.726 | 1.26 | 1.42 | 1.49 | 1.22 | 1.07 | 0.396 | 0.222 | 0.128 | 0.122 |  |  |  |  | 
16 | NCI-H1623 | 0.4 | 0.479 | 0.429 | 0.498 | 0.363 |  |  |  |  |  |  |  |  |  |  |  |  |  | 
17 | NCI-H23 | 0.245 | 0.216 |  | 0.204 | 0.198 | 0.472 | 0.42 | 0.451 | 0.598 | 0.39 | 0.288 | 0.243 | 0.211 | 0.251 | 0.968 | 1.16 | 0.958 | 1.36 | 0.899
18 | COR-L 105 | 0.552 | 0.79 | 0.774 | 0.616 | 0.677 | 0.682 | 0.697 | 0.858 | 0.712 | 0.438 | 0.605 | 0.586 | 0.555 | 0.364 | 0.893 | 0.726 | 0.83 | 0.963 | 0.616
19 | LOU-NH91 | 0.318 | 0.335 | 0.349 | 0.379 | 0.326 | 0.795 | 0.818 | 0.719 | 0.754 | 0.715 | 0.79 | 0.768 | 0.492 | 0.311 | 0.53 | 0.485 | 0.519 | 0.502 | 0.497
20 | NCI-H650 | 0.827 | 0.787 | 0.819 | 0.833 | 0.769 | 0.76 | 0.622 | 0.694 |  | 0.619 | 0.246 | 0.213 | 0.168 | 0.091 | 1.02 | 0.779 | 1.1 |  | 0.891
